Data from ChEMBL document CHEMBL2074284, “Transport of ochratoxin A by renal multispecific organic anion transporter 1” (J Pharmacol Exp Ther, 1999).

What was measured:
[1] = target: T1, Solute carrier family 22 member 6 (Rattus norvegicus, UniProt O35956); assay: TP_TRANSPORTER: inhibition of Ochratoxin A uptake (OTA: 1 uM, Aspartame: 1000 uM) in Xenopus laevis oocytes; type: functional, cell-based; details: oocyte
T1 sequence (O35956 whole entry): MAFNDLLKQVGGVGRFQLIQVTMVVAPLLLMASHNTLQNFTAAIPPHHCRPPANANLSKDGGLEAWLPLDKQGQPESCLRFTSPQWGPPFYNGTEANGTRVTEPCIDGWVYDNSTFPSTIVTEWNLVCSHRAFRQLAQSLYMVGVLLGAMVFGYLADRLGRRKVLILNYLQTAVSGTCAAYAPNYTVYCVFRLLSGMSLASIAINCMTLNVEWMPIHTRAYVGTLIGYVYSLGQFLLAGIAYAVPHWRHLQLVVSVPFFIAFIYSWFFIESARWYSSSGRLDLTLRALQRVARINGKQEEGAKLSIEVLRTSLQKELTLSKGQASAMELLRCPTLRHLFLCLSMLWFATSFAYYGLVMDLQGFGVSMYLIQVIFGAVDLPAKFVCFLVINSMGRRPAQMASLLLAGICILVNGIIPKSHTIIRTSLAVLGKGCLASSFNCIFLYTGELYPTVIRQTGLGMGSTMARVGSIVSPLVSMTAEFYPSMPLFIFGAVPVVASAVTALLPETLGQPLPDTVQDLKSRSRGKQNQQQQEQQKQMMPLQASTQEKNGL

[2] = target: T1, Solute carrier family 22 member 6; assay: TP_TRANSPORTER: inhibition of Ochratoxin A uptake (OTA: 1 uM, Citrinin: 200 uM) in Xenopus laevis oocytes; type: functional, cell-based; details: oocyte

SMILES	Activity [1]	Activity [2]
COC(=O)[C@H](Cc1ccccc1)NC(=O)[C@@H](N)CC(=O)O	is not an inhibitor [-]	–
CC1=C2C(=CO[C@H](C)[C@H]2C)C(O)=C(C(=O)O)C1=O [CITRININ]	–	inhibitor [(at a rough estimate) 20 % of control]
